This note sets out measurements from PubChem BioAssay (NCI).

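How tested: cells in 96-well plates exposed to compound for 48 hours at five concentrations. GI50: concentration for 50% inhibition of growth. The concentration for full growth arrest is given as TGI.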

Some test systems named below: A498 renal; CCRF-CEM leukemia; COLO 205 colon; IGROV1 ovarian; MCF7 breast; SF-295 CNS; SK-MEL-2 melanoma; SNB-75 CNS; TK-10 renal; UACC-257 melanoma.
What all share (assay): NCI-60 cell line screen, 48 h

Turning to `COC(=O)c1oc2c(C(=O)/C=C/c3ccc(OC)cc3)c(OCCN3CCOCC3)ccc2c1C`, the GI50 in the assay on A498 renal was 2.04 µM; in the assay with CCRF-CEM leukemia, 0.395 µM; in the assay with COLO 205 colon, 1.58 µM; in the assay on IGROV1 ovarian, 1.85 µM; in the assay on MCF7 breast, 0.97 µM; in the assay with SF-295 CNS, 1.85 µM. Besides, the GI50 was 1.32 µM in the assay on SK-MEL-2 melanoma, 1.83 µM in the assay with SNB-75 CNS, 3.31 µM in the assay on TK-10 renal and 1.99 µM in the assay on UACC-257 melanoma. Also, the TGI was 4.69 µM with A498 renal; 2.53 µM with CCRF-CEM leukemia; 3.12 µM in the assay with COLO 205 colon; 4.55 µM in the assay on IGROV1 ovarian; 7.33 µM with MCF7 breast; 5.2 µM with SF-295 CNS. For the same compound, the TGI with SK-MEL-2 melanoma worked out at 3.15 µM; in the assay with SNB-75 CNS, 6.77 µM; in the assay on TK-10 renal, 11.9 µM; in the assay with UACC-257 melanoma, 4.25 µM.

For the compound `N#Cc1c(N/N=C\c2ccc(Cl)cc2)nc(N)nc1N1CCOCC1`, the GI50 with A498 renal is 25.5 µM; in the assay with CCRF-CEM leukemia, 25.8 µM; in the assay with COLO 205 colon, 66.2 µM; with IGROV1 ovarian, 26 µM; in the assay on MCF7 breast, 77.3 µM; with SF-295 CNS it was 33.2 µM. Also, the GI50 was 99.2 µM in the assay with SK-MEL-2 melanoma, 57.3 µM in the assay on SNB-75 CNS, 40.1 µM in the assay on TK-10 renal and 32.2 µM in the assay on UACC-257 melanoma. The TGI is 69.2 µM in the assay with A498 renal; 78.9 µM in the assay with CCRF-CEM leukemia; above 100 µM with COLO 205 colon; 97.4 µM in the assay with IGROV1 ovarian; above 100 µM in the assay on MCF7 breast; above 100 µM with SF-295 CNS. In addition, the TGI with SK-MEL-2 melanoma, with SNB-75 CNS, in the assay with TK-10 renal and with UACC-257 melanoma was above 100 µM throughout.

For `Cn1cc(C2=C(c3cn(CCCCCO)c4ccccc34)C(=O)NC2=O)c2ccccc21`, the GI50 in the assay on A498 renal was 4.18 µM; in the assay on CCRF-CEM leukemia it was 3.01 µM; in the assay with COLO 205 colon it was 3.89 µM; in the assay with IGROV1 ovarian it was 8.04 µM; in the assay on MCF7 breast, 3.56 µM; in the assay with SF-295 CNS it was 4.5 µM. Besides, the GI50 in the assay with SK-MEL-2 melanoma is 2.83 µM; with SNB-75 CNS, 1.21 µM; with TK-10 renal, 6.11 µM; with UACC-257 melanoma it was 9.48 µM. Besides, the TGI in the assay with A498 renal is 14.3 µM; in the assay with CCRF-CEM leukemia it was above 16.6 µM; in the assay with COLO 205 colon, 11.4 µM; in the assay with IGROV1 ovarian, 17.9 µM; in the assay with MCF7 breast, above 22.5 µM; in the assay with SF-295 CNS, 13.9 µM. In addition, the TGI is 8.15 µM in the assay on SK-MEL-2 melanoma, 8.9 µM in the assay on SNB-75 CNS, 16 µM in the assay with TK-10 renal and above 25 µM in the assay with UACC-257 melanoma.

As for `COc1ccc2c(c1)C(c1cc(OC)c3c(c1)OCO3)C1=C(COC1=O)N2` (configuration not stated), the GI50 in the assay with A498 renal was 0.105 µM; with CCRF-CEM leukemia, 0.382 µM; in the assay with COLO 205 colon, 0.277 µM; in the assay with IGROV1 ovarian it was 0.687 µM; with MCF7 breast, 0.261 µM; in the assay on SF-295 CNS, 0.0919 µM. Also, the GI50 is 0.347 µM in the assay on SK-MEL-2 melanoma and 0.381 µM in the assay on SNB-75 CNS. Also, the TGI in the assay on A498 renal was 1.48 µM; with CCRF-CEM leukemia, above 100 µM; with COLO 205 colon, 0.713 µM; in the assay on IGROV1 ovarian it was above 84.5 µM; in the assay on MCF7 breast, 27.3 µM; with SF-295 CNS, above 34 µM. Further, the TGI is above 44.8 µM with SK-MEL-2 melanoma, 37.6 µM with SNB-75 CNS, above 77.2 µM in the assay on TK-10 renal and above 100 µM in the assay with UACC-257 melanoma.

Regarding `COc1cc2nc3cc([N+](=O)[O-])ccc3c(NCCNCC(C)O)c2cc1OC` (configuration not stated), the GI50 with A498 renal was 1.37 µM; in the assay on CCRF-CEM leukemia, 0.34 µM; with COLO 205 colon, 0.368 µM; in the assay with IGROV1 ovarian, 0.495 µM; in the assay with MCF7 breast, 0.332 µM; in the assay with SF-295 CNS it was 0.484 µM. The GI50 is 0.63 µM in the assay on SK-MEL-2 melanoma, 0.675 µM in the assay with SNB-75 CNS, 1.72 µM in the assay on TK-10 renal and 1.63 µM in the assay with UACC-257 melanoma. Moreover, the TGI with A498 renal turned out to be 3.02 µM; in the assay with CCRF-CEM leukemia it was 3.13 µM; in the assay on COLO 205 colon, 1.57 µM; in the assay on IGROV1 ovarian, 2.26 µM; in the assay with MCF7 breast, 1.57 µM; in the assay with SF-295 CNS, 3.34 µM. Further, the TGI in the assay on SK-MEL-2 melanoma turned out to be 2.18 µM; in the assay on SNB-75 CNS, 2.07 µM; in the assay with TK-10 renal it was 5.71 µM; in the assay with UACC-257 melanoma, 3.67 µM.

As for `C=CC(=O)N1CC[C@H](n2nc(C#Cc3cc(OC)cc(OC)c3)c3c(N)ncnc32)C1`, the TGI with A498 renal was 1.6 µM; with CCRF-CEM leukemia, above 100 µM; in the assay with COLO 205 colon, above 100 µM; in the assay on IGROV1 ovarian, above 100 µM; in the assay with MCF7 breast, above 100 µM; with SF-295 CNS it was above 100 µM. Moreover, the TGI is 52.1 µM in the assay with SK-MEL-2 melanoma, 6.91 µM in the assay on SNB-75 CNS, above 100 µM in the assay with TK-10 renal and above 100 µM in the assay on UACC-257 melanoma. The GI50 was 4.57 µM in the assay with CCRF-CEM leukemia; 15.8 µM in the assay with COLO 205 colon; 2.88 µM in the assay on IGROV1 ovarian; 3.78 µM with MCF7 breast; 15.5 µM with SF-295 CNS; 8.49 µM with SK-MEL-2 melanoma. Further, the GI50 in the assay on SNB-75 CNS was 0.343 µM; in the assay with TK-10 renal, 4.03 µM; with UACC-257 melanoma, 10.8 µM.

In the case of `C=CCOC(=O)Nc1cccn([C@H](CC(C)C)C(=O)NCCC(C)C)c1=O`, the GI50 in the assay on A498 renal is 17.2 µM; with CCRF-CEM leukemia, 26.8 µM; with COLO 205 colon it was above 100 µM; in the assay with IGROV1 ovarian it was 60.4 µM; in the assay on MCF7 breast, 99.4 µM; in the assay on SF-295 CNS it was 18.7 µM. Also, the GI50 with SK-MEL-2 melanoma is above 100 µM; in the assay on SNB-75 CNS, 4.91 µM; in the assay with TK-10 renal, above 100 µM; in the assay on UACC-257 melanoma, 66.5 µM. Also, the TGI in the assay with A498 renal was above 100 µM; in the assay on CCRF-CEM leukemia, 90.3 µM; in the assay on COLO 205 colon it was above 100 µM; in the assay on IGROV1 ovarian, above 100 µM; in the assay with MCF7 breast, above 100 µM; in the assay with SF-295 CNS it was above 100 µM. The TGI with SK-MEL-2 melanoma, in the assay on SNB-75 CNS, in the assay on TK-10 renal and in the assay with UACC-257 melanoma was above 100 µM in each case.

In the case of `OCC1CCCC1O` (configuration not stated), the TGI in the assay on A498 renal, in the assay on CCRF-CEM leukemia, in the assay with COLO 205 colon, in the assay on IGROV1 ovarian, in the assay with MCF7 breast and in the assay on SF-295 CNS was above 100 µM throughout. Also, the TGI in the assay with SK-MEL-2 melanoma, in the assay with SNB-75 CNS, in the assay with TK-10 renal and with UACC-257 melanoma was above 100 µM each time.

`CCCN(CCC)c1ccc(C=O)c(C)c1`: the GI50 with A498 renal was 1.27 µM; with CCRF-CEM leukemia, 46.8 µM; with COLO 205 colon, 29.1 µM; in the assay with IGROV1 ovarian it was 61 µM; with MCF7 breast it was 40.8 µM; with SF-295 CNS, 29.1 µM. The GI50 in the assay with SK-MEL-2 melanoma is 30.9 µM; in the assay on SNB-75 CNS, 22.3 µM; in the assay on TK-10 renal it was 41.6 µM; in the assay with UACC-257 melanoma, 19.2 µM. The TGI in the assay on A498 renal was 3.28 µM; in the assay on CCRF-CEM leukemia it was above 100 µM; with COLO 205 colon it was above 100 µM; in the assay on IGROV1 ovarian it was above 100 µM; in the assay on MCF7 breast, above 100 µM; in the assay with SF-295 CNS it was above 100 µM. In addition, the TGI in the assay with SK-MEL-2 melanoma was above 100 µM; with SNB-75 CNS, 97.7 µM; in the assay with TK-10 renal, above 100 µM; in the assay with UACC-257 melanoma it was above 96.3 µM.

Turning to `O=[N+]([O-])c1ccc2c(c1)C(c1ccccc1Cl)=Nc1c(n[nH]c1-c1cccnc1)N2`, the GI50 in the assay with A498 renal was above 20.3 µM; in the assay with CCRF-CEM leukemia, above 25 µM; in the assay on COLO 205 colon, above 25 µM; in the assay with IGROV1 ovarian, above 25 µM; in the assay with MCF7 breast, above 25 µM; with SF-295 CNS, above 25 µM. The GI50 was above 25 µM with SK-MEL-2 melanoma, above 10.1 µM in the assay on SNB-75 CNS, above 25 µM with TK-10 renal and above 25 µM with UACC-257 melanoma. The TGI in the assay on A498 renal, with CCRF-CEM leukemia, in the assay on COLO 205 colon, in the assay with IGROV1 ovarian, with MCF7 breast and with SF-295 CNS was above 25 µM each time. The TGI with SK-MEL-2 melanoma, in the assay on SNB-75 CNS, in the assay with TK-10 renal and in the assay on UACC-257 melanoma was above 25 µM throughout.

Regarding `O=C(O)c1cn(C2CC2)c2cc(N3CCN(Cc4c(O)ccc5ccccc45)CC3)c(F)cc2c1=O`, the GI50 with A498 renal was 1.48 µM; with CCRF-CEM leukemia, 20.5 µM; in the assay on COLO 205 colon, 5.13 µM; in the assay on IGROV1 ovarian, 9.64 µM; in the assay with MCF7 breast, 5.63 µM; with SF-295 CNS it was 8.22 µM. For the same compound, the GI50 was 15.1 µM in the assay with SK-MEL-2 melanoma, 1.94 µM in the assay with SNB-75 CNS, 2.66 µM in the assay on TK-10 renal and above 100 µM in the assay with UACC-257 melanoma. Moreover, the TGI in the assay with A498 renal was 4.47 µM; in the assay on CCRF-CEM leukemia, above 100 µM; with COLO 205 colon, above 100 µM; with IGROV1 ovarian, above 100 µM; in the assay with MCF7 breast it was above 100 µM; with SF-295 CNS, above 100 µM. The TGI was above 100 µM in the assay with SK-MEL-2 melanoma, 17.8 µM with SNB-75 CNS, 8.38 µM in the assay with TK-10 renal and above 100 µM in the assay with UACC-257 melanoma.
